# Measurements from patent publication US11613558B2, “Peptides and pharmaceutical compositions for treating eye diseases” (Yuyu Pharma, Inc., priority 2018, dated 2023).
# Square brackets hold non-standard residues; d marks the D form. Peptide text beside a SMILES is read from it. ξ: configuration not given here. Nva(4-oxo) = CC(=O)C[C@H](N)C(=O)O; Hyp = O=C(O)[C@@H]1C[C@@H](O)CN1; Ile(3ξ) = CCC(C)[C@H](N)C(=O)O; Thr(3ξ) = CC(O)[C@H](N)C(=O)O; Sar = CNCC(=O)O
# Assays:
# [1] = Stability in aqueous solution under long-term storage conditions (related substances); type: physicochemical; settings: 25° C., 75% RH
# Protocol: In order to confirm the stability of each test substance in an aqueous solution, […] of each sample was dissolved in 1 ml of water to a concentration of 1 mg/ml, which was then charged to a glass vial, plugged with a rubber cap, sealed with an aluminum cap, and stored under long-term storage conditions (25° C., 75% RH). The stability of the test substance was evaluated by measuring the amount of related substances at the time of one week, two weeks, four weeks, eight weeks, and twelve weeks under the long-term storage conditions.
# [2] = system: cornea of rats with dry eye syndrome (ELGE); experiment: Corneal permeability of fluorescent dye (corneal damage) in ELGE rats with dry eye syndrome; type: in vivo, rat; settings: Table 6, study of YDE-001 to YDE-028, 3 mg/ml, 5 μl/eye twice daily, day 14
# Source text: (§1) In order to evaluate the eye protection effect on dry eye syndrome by YDE-001 to YDE-028 prepared in Example 1, a total of 320 Sprague-Dawley-type male rats (OrientBio, Seungnam, Korea) were adapted for 7 days. Thereafter, dry eye syndrome was induced in 264 test rats through extraorbital lacrimal gland excision (hereinafter, ELGE). 8 test rats without the eye abnormality were subjected to a sham operation as a control group.
# (§2) The rat was systemically anesthetized by inhaling a mixed gas of 2% to 3% of isoflurane (Hana Pharm. Co., Hwasung, Korea), 70% of N2O, and 28.6% of O2 using a rodent anesthesia machine (Surgivet, Waukesha, Wis., USA) and a ventilator (Model 687, Harvard Apparatus, Cambridge, UK). Thereafter, the extraorbital lacrimal gland located in the subdermal area above the masseter muscle and […] was excised through a transverse incision in a size of 10 mm on the anterior part of the left ear tragus. The skin was sutured by a general method. […] After 6 days from the ELGE operation, it was checked through the Schirmer test by measuring the amount of tear secretion whether dry eye syndrome had been induced. Meanwhile, each rat of the control group with the sham operation was checked for the presence and location of the extraorbital lacrimal gland through a skin incision, and the skin was then sutured without the excision thereof (FIG. 4).
# (§3) In addition, in order to evaluate the eye protection effect on dry eye syndrome by YDE-029 to YDE-043 prepared in Example 1, a total of 200 Sprague-Dawley-type male rats (OrientBio, Seungnam, Korea) were adapted for 7 days. Dry eye syndrome was induced in 165 test rats through the ELGE. 8 test rats without the eye abnormality were subjected to the sham operation as a control group. The ELGE was carried out as described above.
# (§4) For YDE-001 to YDE-028, YY-102 and the 28 YDE-series were each dissolved in physiological saline at a concentration of 3 mg/ml and administered at a dose of 5 μl/eye at 9:30 am and 3:30 pm daily for 14 days after 7 days from the ELGE operation for a total of 28 times. The DS solution was dissolved in physiological saline at a concentration of 30 mg/ml and administered at a dose of […] twice a day for 14 days after 7 days from the ELGE operation for a total of 28 times. For the sham control and the ELGE control groups, the same stimulation as the administration was applied. In order to prevent excessive eye dryness, the same volume of physiological saline was applied in the same manner in place of the test substances.
# as §4, with “Further, for YDE-029 to YDE-043,” for “For YDE-001 to YDE-028,”, “YDE-029 to YDE-043, YY-102 and” for “YDE-001 to YDE-028, YY-102 and”, “and the 15 YDE-series were” for “and the 28 YDE-series were”, “the test substances (FIG. 7).” for “the test substances.”
# After YDE-001 to YDE-028 were each administered to the eyes […], the changes in the corneal permeability were checked.
# In order to measure the corneal permeability, Zolethyl 50™ (Virbac Lab., Carros, France), an animal anesthetic, was intraperitoneally injected at a dose of 25 mg/kg. Thereafter, saline containing a 1% (v/v) fluorescent solution (fluorescein sodium salt, Tokyo Kasei Kogyo Co., Tokyo, Japan) was applied to the eyes at a dose of 5 μl/eye. The eyes thus treated were closed and fixed with a tape. After 1 hour, the remaining fluorescent solution was removed using a cotton swab (FIG. 12). […]
# [3] = system: rats with dry eye syndrome (extraorbital lacrimal gland excision, ELGE); experiment: Amount of tear secretion (Schirmer test, cobalt chloride paper) in ELGE rats with dry eye syndrome; type: in vivo, rat; settings: for Tear Volumes, Day 7 / Tear Volumes, Day 14: Table 4, study of YDE-001 to YDE-028, ELGE rats, 3 mg/ml, 5 μl/eye twice daily; for Tear Volumes, Day 7: day 7 of administration; for Tear Volumes, Day 14: day 14 of administration; for Change in amount of tear secretion as compared with the ELGE control group: study of YDE-001 to YDE-028, 3% solution as printed, after administration for 14 days
# Source text: as §1, §2, §3, §4
# as §4, with “Further, for YDE-029 to YDE-043,” for “For YDE-001 to YDE-028,”, “YDE-029 to YDE-043, YY-102 and” for “YDE-001 to YDE-028, YY-102 and”, “and the 15 YDE-series were” for “and the 28 YDE-series were”, “the test substances (FIG. 7).” for “the test substances.”
# After 6 days from the ELGE surgery, the changes in the amount of tear secretion were measured at day 7 and day 14 after the administration of YDE-001 to YDE-043. The amount of tear secretion was measured by the […] travel distance of tears absorbed by cobalt chloride paper in a size of 1×15 mm (Toyo Roshi Kaisha, Japan).
# The cobalt chloride paper was placed in the lateral canthus of a rat for 60 seconds to absorb tears (FIG. 9). The length of the area absorbed from the corner of the cobalt chloride paper was measured with an electronic digital caliper (Mytutoyo, Tokyo, Japan) (FIG. 8).
Compound,Amount of related substances (after 12 weeks) [1] [%],Permeability of fluorescent dye [2] [%],"Tear Volumes, Day 7 [3] [mm^3]","Tear Volumes, Day 14 [3] [mm^3]",Change in amount of tear secretion as compared with the ELGE control group [3]
CC(C)C[C@H](NC(=O)CNC(=O)[C@H](Cc1c[nH]c2ccccc12)NC(=O)[C@H](CCC(N)=O)NC(=O)CNC(=O)[C@@H]1C[C@@H](O)CN1)C(=O)N[C@@H](C)C(=O)NCC(=O)N1CCC[C@H]1C(=O)N[C@@H](CCCCN)C(=O)O [YDE-014] (H-[Hyp]GQWGLAGPK-OH),6.72,31.15 ± 10.87,3.81 ± 1.21,5.62 ± 1.85,
CC(C)C[C@H](NC(=O)[C@H](C)NC(=O)[C@H](CC(=O)O)NC(=O)[C@H](CCC(N)=O)NC(=O)CNC(=O)[C@@H]1C[C@@H](O)CN1)C(=O)N[C@@H](C)C(=O)NCC(=O)N1CCC[C@H]1C(=O)N[C@@H](CCCCN)C(=O)O [YDE-018] (H-[Hyp]GQDALAGPK-OH),25.39,38.19 ± 10.96,3.75 ± 1.54,4.99 ± 1.60,
CC(C)C[C@H](NC(=O)[C@H](Cc1ccccc1)NC(=O)[C@H](CC(=O)O)NC(=O)[C@H](CCC(N)=O)NC(=O)CNC(=O)[C@@H]1C[C@@H](O)CN1)C(=O)N[C@@H](C)C(=O)NCC(=O)N1CCC[C@H]1C(=O)N[C@@H](CCCCN)C(=O)O [YDE-019] (H-[Hyp]GQDFLAGPK-OH),13.43,40.39 ± 12.57,4.84 ± 1.39,4.52 ± 1.07,did not show any significant changes
CC(C)C[C@H](NC(=O)[C@H](Cc1c[nH]cn1)NC(=O)[C@H](CC(=O)O)NC(=O)[C@H](CCC(N)=O)NC(=O)CNC(=O)[C@@H]1C[C@@H](O)CN1)C(=O)N[C@@H](C)C(=O)NCC(=O)N1CCC[C@H]1C(=O)N[C@@H](CCCCN)C(=O)O [YDE-022] (H-[Hyp]GQDHLAGPK-OH),19.23,47.82 ± 10.01,3.19 ± 0.67,4.10 ± 0.95,did not show any significant changes
CC(C)C[C@H](NC(=O)[C@H](CO)NC(=O)[C@H](CC(=O)O)NC(=O)[C@H](CCC(N)=O)NC(=O)CNC(=O)[C@@H]1C[C@@H](O)CN1)C(=O)N[C@@H](C)C(=O)NCC(=O)N1CCC[C@H]1C(=O)N[C@@H](CCCCN)C(=O)O [YDE-023] (H-[Hyp]GQDSLAGPK-OH),30.66,26.51 ± 8.18,5.32 ± 2.30,5.78 ± 2.23,
CC(C)C[C@H](NC(=O)[C@@H](NC(=O)[C@H](CC(=O)O)NC(=O)[C@H](CCC(N)=O)NC(=O)CNC(=O)[C@@H]1C[C@@H](O)CN1)C(C)O)C(=O)N[C@@H](C)C(=O)NCC(=O)N1CCC[C@H]1C(=O)N[C@@H](CCCCN)C(=O)O (stereo partly drawn) [YDE-024] (H-[Hyp]GQD[Thr(3ξ)]LAGPK-OH),20.59,30.63 ± 10.41,3.85 ± 1.30,5.72 ± 1.36,

# Continued, in another order:
Amount of related substances (after 12 weeks) [1] [%],Compound,Permeability of fluorescent dye [2] [%],"Tear Volumes, Day 7 [3] [mm^3]","Tear Volumes, Day 14 [3] [mm^3]",Change in amount of tear secretion as compared with the ELGE control group [3]
13.05,CC(C)C[C@H](NC(=O)[C@@H](NC(=O)[C@H](CC(=O)O)NC(=O)[C@H](CCC(N)=O)NC(=O)CNC(=O)[C@@H]1C[C@@H](O)CN1)C(C)C)C(=O)N[C@@H](C)C(=O)NCC(=O)N1CCC[C@H]1C(=O)N[C@@H](CCCCN)C(=O)O [YDE-015] (H-[Hyp]GQDVLAGPK-OH),15.95 ± 6.48,4.03 ± 2.19,6.65 ± 2.13,
11.33,CCC(C)[C@H](NC(=O)[C@H](CC(=O)O)NC(=O)[C@H](CCC(N)=O)NC(=O)CNC(=O)[C@@H]1C[C@@H](O)CN1)C(=O)N[C@@H](CC(C)C)C(=O)N[C@@H](C)C(=O)NCC(=O)N1CCC[C@H]1C(=O)N[C@@H](CCCCN)C(=O)O (stereo partly drawn) [YDE-016] (H-[Hyp]GQD[Ile(3ξ)]LAGPK-OH),24.57 ± 10.34,4.59 ± 1.13,5.98 ± 2.27,
11.88,CC(C)C[C@H](NC(=O)[C@H](CC(C)C)NC(=O)[C@H](CC(=O)O)NC(=O)[C@H](CCC(N)=O)NC(=O)CNC(=O)[C@@H]1C[C@@H](O)CN1)C(=O)N[C@@H](C)C(=O)NCC(=O)N1CCC[C@H]1C(=O)N[C@@H](CCCCN)C(=O)O [YDE-017] (H-[Hyp]GQDLLAGPK-OH),39.76 ± 7.42,4.00 ± 1.22,4.89 ± 1.50,did not show any significant changes
21.54,CC(C)C[C@H](NC(=O)[C@H](Cc1ccc(O)cc1)NC(=O)[C@H](CC(=O)O)NC(=O)[C@H](CCC(N)=O)NC(=O)CNC(=O)[C@@H]1C[C@@H](O)CN1)C(=O)N[C@@H](C)C(=O)NCC(=O)N1CCC[C@H]1C(=O)N[C@@H](CCCCN)C(=O)O [YDE-020] (H-[Hyp]GQDYLAGPK-OH),47.84 ± 13.47,3.41 ± 1.47,4.20 ± 1.35,did not show any significant changes
21.33,CC(C)C[C@H](NC(=O)[C@H](Cc1c[nH]c2ccccc12)NC(=O)[C@H](CC(=O)O)NC(=O)[C@H](CCC(N)=O)NC(=O)CNC(=O)[C@@H]1C[C@@H](O)CN1)C(=O)N[C@@H](C)C(=O)NCC(=O)N1CCC[C@H]1C(=O)N[C@@H](CCCCN)C(=O)O [YDE-021] (H-[Hyp]GQDWLAGPK-OH),37.00 ± 10.49,4.08 ± 1.33,4.90 ± 1.13,did not show any significant changes
5.17,CC(=O)C[C@H](NC(=O)[C@H](CCC(N)=O)NC(=O)CNC(=O)[C@@H]1C[C@@H](O)CN1)C(=O)N(C)CC(=O)N[C@@H](CC(C)C)C(=O)N[C@@H](C)C(=O)NCC(=O)N1CCC[C@H]1C(=O)N[C@@H](CCCCN)C(=O)O [YDE-025] (H-[Hyp]GQ[Nva(4-oxo)][Sar]LAGPK-OH),47.10 ± 11.45,3.21 ± 0.72,4.72 ± 2.19,did not show any significant changes
